Calls of active or inactive are those of the source. The rule behind the calls is not given here.

The first assay concerns HEK293. Put plainly: Cytotoxicity against human HEK293 cells assessed as inhibition of cell survival at 5 to 15 uM after 72 hrs by MTT assay relative to control. In kind it is functional, cell-based.
Settings: not given
Regarding `CCCCC/C=C\C/C=C\CCCCCCCC(=O)Oc1ccc(C(=O)c2cc(OC)c(OC)c(OC)c2)cc1OC`, the inhibition result was “Active”.

Another assay concerns MCF7. Put plainly: Cytotoxicity against human MCF7 cells assessed as inhibition of cell survival at 5 to 15 uM after 72 hrs by MTT assay relative to control. The format is functional, cell-based.
Settings: not given
Regarding `CCCCC/C=C\C/C=C\CCCCCCCC(=O)Oc1ccc(C(=O)c2cc(OC)c(OC)c(OC)c2)cc1OC`, the inhibition result is “Active”.

Another assay relates to NCI-H460. In words: Cytotoxicity against human H460 cells assessed as inhibition of cell survival at 5 to 15 uM after 72 hrs by MTT assay relative to control. In kind it is functional, cell-based.
Settings: not given
With `CCCCC/C=C\C/C=C\CCCCCCCC(=O)Oc1ccc(C(=O)c2cc(OC)c(OC)c(OC)c2)cc1OC`, the inhibition entry was “Active”.

The subject of the next assay is KB 3-1. Put plainly: Cytotoxicity against human KB-3-1 cells assessed as inhibition of cell survival at 5 to 15 uM after 72 hrs by MTT assay relative to control. The format is functional, cell-based.
Settings: not given
For the compound `CCCCC/C=C\C/C=C\CCCCCCCC(=O)Oc1ccc(C(=O)c2cc(OC)c(OC)c(OC)c2)cc1OC`, the inhibition result is “Active”.

The test system of another assay is MCF7. Put plainly: Cytotoxicity against human MCF7 cells assessed as inhibition of cell survival at 0.5 uM after 72 hrs by MTT assay relative to control. In kind it is functional. The note with it: MCF7, 72 h.
For `CCCCC/C=C\C/C=C\CCCCCCCC(=O)Oc1cc(C(=O)c2cc(OC)c(OC)c(OC)c2)ccc1OC`, the inhibition at 0.5 µM is 20%.

Another assay has as its system HEK293. In words: Cytotoxicity against human HEK293 cells assessed as inhibition of cell survival at 0.5 uM after 72 hrs by MTT assay relative to control. In kind it is functional. The note with it: HEK293, 72 h.
With `CCCCC/C=C\C/C=C\CCCCCCCC(=O)Oc1cc(C(=O)c2cc(OC)c(OC)c(OC)c2)ccc1OC`, the inhibition at 0.5 µM worked out at 20%.

Tested on in another assay: not listed separately
In words: Cytotoxicity against human H460 cells assessed as inhibition of cell survival at 0.5 uM after 72 hrs by MTT assay relative to control. In kind it is functional. The settings on record: NCI-H460, 72 h.
As for `CCCCC/C=C\C/C=C\CCCCCCCC(=O)Oc1cc(C(=O)c2cc(OC)c(OC)c(OC)c2)ccc1OC`, the inhibition at 0.5 µM turned out to be 20%.

For the next assay, the system named is HEK293. Put plainly: Cytotoxicity against human HEK293 cells after 72 hrs by MTT assay. The note with it: HEK293, 72 h. The format is functional, cell-based.
Compound `CCCCCCCC/C=C\CCCCCCCC(=O)Oc1cc(C(=O)c2cc(OC)c(OC)c(OC)c2)ccc1OC` returned an IC50 of 0.95 µM.
Same read-out and setting: the result for `COc1ccc(C(=O)c2cc(OC)c(OC)c(OC)c2)cc1O` [PHENSTATIN] reads 0.023 µM; that for `CCCCCCCC/C=C\CCCCCCCC(=O)Oc1ccc(C(=O)c2cc(OC)c(OC)c(OC)c2)cc1OC`, 2.36 µM; that for `COc1cc2c(c(OC)c1OC)-c1ccc(OC)c(=O)cc1[C@@H](NC(C)=O)CC2` [COLCHICINE], 0.009 µM.
`CCCCCCCCCCCCCCCCCC(=O)Oc1ccc(C(=O)c2cc(OC)c(OC)c(OC)c2)cc1OC` registered an IC50 of 15.6 µM. This IC50 lies about 1700-fold higher than the previous one.
On the same count and under the same terms, the value for `CCCCC/C=C\C/C=C\CCCCCCCC(=O)Oc1ccc(C(=O)c2cc(OC)c(OC)c(OC)c2)cc1OC` was 0.903 µM.
Same read-out and setting: the result for `CCCCCCCCCCCCCCCCCC(=O)Oc1cc(C(=O)c2cc(OC)c(OC)c(OC)c2)ccc1OC` reads 2.64 µM; that for `CCCCC/C=C\C/C=C\CCCCCCCC(=O)Oc1cc(C(=O)c2cc(OC)c(OC)c(OC)c2)ccc1OC`, 0.21 µM; that for `COc1cc(C(=O)c2cc(OC)c(OC)c(OC)c2)ccc1O` [ISOPHENSTATIN], 0.196 µM.

Tested on in another assay: not listed separately
Put plainly: Cytotoxicity against human H460 cells after 72 hrs by MTT assay. In kind it is functional, cell-based. The note with it: NCI-H460, 72 h.
Consider `CCCCCCCC/C=C\CCCCCCCC(=O)Oc1cc(C(=O)c2cc(OC)c(OC)c(OC)c2)ccc1OC`, for which the IC50 amounted to 0.909 µM. In other words, the sub-micromolar range.
On the same count and under the same terms, the result for `COc1ccc(C(=O)c2cc(OC)c(OC)c(OC)c2)cc1O` [PHENSTATIN] reads 0.02 µM; that for `CCCCCCCC/C=C\CCCCCCCC(=O)Oc1ccc(C(=O)c2cc(OC)c(OC)c(OC)c2)cc1OC`, 2.19 µM; that for `CCCCCCCCCCCCCCCCCC(=O)Oc1ccc(C(=O)c2cc(OC)c(OC)c(OC)c2)cc1OC`, 17.6 µM.
Still for that read-out and setting: the result for `CCCCC/C=C\C/C=C\CCCCCCCC(=O)Oc1ccc(C(=O)c2cc(OC)c(OC)c(OC)c2)cc1OC` reads 0.867 µM; that for `CCCCCCCCCCCCCCCCCC(=O)Oc1cc(C(=O)c2cc(OC)c(OC)c(OC)c2)ccc1OC`, 4.7 µM; that for `CCCCC/C=C\C/C=C\CCCCCCCC(=O)Oc1cc(C(=O)c2cc(OC)c(OC)c(OC)c2)ccc1OC`, 0.176 µM.
`COc1cc(C(=O)c2cc(OC)c(OC)c(OC)c2)ccc1O` [ISOPHENSTATIN] came in with an IC50 of 0.188 µM.

The subject of another assay is MCF7. Put plainly: Cytotoxicity against human MCF7 cells after 72 hrs by MTT assay. The note with it: MCF7, 72 h. The format is functional, cell-based.
With `CCCCCCCC/C=C\CCCCCCCC(=O)Oc1cc(C(=O)c2cc(OC)c(OC)c(OC)c2)ccc1OC`, the IC50 stood at 0.943 µM.
In turn, `COc1ccc(C(=O)c2cc(OC)c(OC)c(OC)c2)cc1O` [PHENSTATIN] registered an IC50 of 0.019 µM. Compared with the last compound, the IC50 is about 50-fold lower.
The same measure, in the same setting: the value for `CCCCCCCC/C=C\CCCCCCCC(=O)Oc1ccc(C(=O)c2cc(OC)c(OC)c(OC)c2)cc1OC` was 2.17 µM; that for `COc1cc2c(c(OC)c1OC)-c1ccc(OC)c(=O)cc1[C@@H](NC(C)=O)CC2` [COLCHICINE] was 0.019 µM.
Consider `CCCCCCCCCCCCCCCCCC(=O)Oc1ccc(C(=O)c2cc(OC)c(OC)c(OC)c2)cc1OC`, for which half-maximal inhibition (IC50) required 26.9 µM.
The same measure, in the same setting: the result for `CCCCC/C=C\C/C=C\CCCCCCCC(=O)Oc1ccc(C(=O)c2cc(OC)c(OC)c(OC)c2)cc1OC` reads 0.745 µM; that for `CCCCCCCCCCCCCCCCCC(=O)Oc1cc(C(=O)c2cc(OC)c(OC)c(OC)c2)ccc1OC`, 3.35 µM.
Same read-out and setting: the value for `CCCCC/C=C\C/C=C\CCCCCCCC(=O)Oc1cc(C(=O)c2cc(OC)c(OC)c(OC)c2)ccc1OC` was 0.181 µM; that for `COc1cc(C(=O)c2cc(OC)c(OC)c(OC)c2)ccc1O` [ISOPHENSTATIN] was 0.199 µM.

Tested on in another assay: not listed separately
Put plainly: Cytotoxicity against human KB-3-1 cells after 72 hrs by MTT assay. In kind it is functional, cell-based. The note with it: KB 3-1, 72 h.
Compound `CCCCCCCC/C=C\CCCCCCCC(=O)Oc1cc(C(=O)c2cc(OC)c(OC)c(OC)c2)ccc1OC` showed an IC50 of 0.786 µM.
Still for that read-out and setting: the result for `COc1ccc(C(=O)c2cc(OC)c(OC)c(OC)c2)cc1O` [PHENSTATIN] reads 0.015 µM; that for `CCCCCCCC/C=C\CCCCCCCC(=O)Oc1ccc(C(=O)c2cc(OC)c(OC)c(OC)c2)cc1OC`, 1.72 µM; that for `COc1cc2c(c(OC)c1OC)-c1ccc(OC)c(=O)cc1[C@@H](NC(C)=O)CC2` [COLCHICINE], 0.018 µM.
On the same count and under the same terms, the value for `CCCCCCCCCCCCCCCCCC(=O)Oc1ccc(C(=O)c2cc(OC)c(OC)c(OC)c2)cc1OC` was 16.9 µM; that for `CCCCC/C=C\C/C=C\CCCCCCCC(=O)Oc1ccc(C(=O)c2cc(OC)c(OC)c(OC)c2)cc1OC` was 0.547 µM; that for `CCCCCCCCCCCCCCCCCC(=O)Oc1cc(C(=O)c2cc(OC)c(OC)c(OC)c2)ccc1OC` was 2.78 µM.
Compound `CCCCC/C=C\C/C=C\CCCCCCCC(=O)Oc1cc(C(=O)c2cc(OC)c(OC)c(OC)c2)ccc1OC` yielded an IC50 of 0.163 µM.
Take `COc1cc(C(=O)c2cc(OC)c(OC)c(OC)c2)ccc1O` [ISOPHENSTATIN]: the IC50 was 0.146 µM.

These data come from ChEMBL document CHEMBL2434821, “New phenstatin-fatty acid conjugates: synthesis and evaluation” (Bioorg Med Chem Lett, 2013).
